Data taken from paper PMC13252604, “First Generation Proteolysis Targeting Chimeras (PROTACs) for the Treatment of Progeria” (Advanced Science, 2026).

Legend:
progerin = target: T1, progerin (Mus musculus, UniProt P48678, DEL608-657); assay: Cellular thermal shift assay; assay type: binding
T1 construct: endogenous in cells; host or cells: immortalized (SV40-LT) fibroblasts from Lmna G609G/G609G mice
T1 sequence (P48678 with tags, fused parts or gaps DEL608-657 limits assumed): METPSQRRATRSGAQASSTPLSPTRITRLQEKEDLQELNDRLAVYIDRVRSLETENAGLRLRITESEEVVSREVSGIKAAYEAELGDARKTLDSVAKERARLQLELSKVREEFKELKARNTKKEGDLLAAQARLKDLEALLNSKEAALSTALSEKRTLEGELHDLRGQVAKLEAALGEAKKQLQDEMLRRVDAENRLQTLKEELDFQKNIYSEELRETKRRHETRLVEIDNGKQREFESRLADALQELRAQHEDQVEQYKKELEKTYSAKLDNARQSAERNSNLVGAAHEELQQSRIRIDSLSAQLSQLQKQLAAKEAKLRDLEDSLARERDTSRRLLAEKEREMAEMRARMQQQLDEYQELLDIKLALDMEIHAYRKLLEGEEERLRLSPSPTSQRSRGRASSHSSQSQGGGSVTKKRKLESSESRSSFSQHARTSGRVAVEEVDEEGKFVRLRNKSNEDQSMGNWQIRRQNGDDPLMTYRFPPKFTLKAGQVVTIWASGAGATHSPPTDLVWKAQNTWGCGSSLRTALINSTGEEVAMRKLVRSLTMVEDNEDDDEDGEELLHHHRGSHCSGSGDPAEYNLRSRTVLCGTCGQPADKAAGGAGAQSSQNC
Protocol: Vehicle .LM123L T-!=>(%C" V,!=> […]
50- !!!!!C#' -4TT8VLamin C -4T:T; (%$$-4-:?5T '()*+
!!!!!E#)*+,- ,V4:-β-Actin ,?4?V ,848; D(%
37- !!!!!*+,- 84;66L<-,V V4-;VL<-,? ?4T-?L<-,8 ,-)*+ […]
Supporting Figure S2. Ternary complex formation, progerin engagement and global selectivity of compound 2. […]
(C) Thermal denaturation curves of progerin in the presence of vehicle (black) or compound 2 at 10 µM (red, DTm=0.7±0.1 °C) or 25 µM (blue, […]
of compound 2 (IC50=7±1 µM). Curves are generated and fitted using sigmoidal dose-response non-linear regression curve fit in GraphPad Prism. Symbols and associated error bars (when not enclosed by the symbol) represent average±SD from two independent experiments carried out in duplicate. […]
(also on this page, place not known: >4000; Cpd2Cpd2 #)"$"C"#"*")*$*C ,V4:- 89:/1239 .0,;902<=:939:>=R?T !"#$#" (%$$ (%C" #)"$"C"#"*")*$*C -45665 -4TT8V ,V4:- 84;66L<-,V T-!=> ,?4?V V4-;VL<-,? -4-:?5T ,848; ?4T-?L<-,8 89:/1239 .0,;902<=:939:>=R?T FFFFFSB#T89: FFFFFSB#T89: FFFFFa+#-++GFB2FC-++CB$ FFFFFbFGF4D-+C FFFFF!4$FB2F!F4D-+G FFFFFiFB2FMF3DE4+G FFFFFiFkF3DE4+GFDLDEdl+C I9em:m rrr 9 :eosmX :e:snst o o Ise::::: I9e::::: :etpoooomX :esnnsmqmX :enst9mmqo :estm9XpoX Lamin β-Actin Progerin Relative progerin levelsin thesoluble fraction Relative levelsof denaturedprogerin [Cpd2, Relative progerin signal intensityvs IgG Cpd2 [Cpd2]=10 [Cpd2]=25 AbundanceRatio Veh Cpd2 -Log10 (p value)) […]
buffer containing 2.5% β-mercaptoethanol, and heated at 95 °C for 5 min prior to magnetic separation and loading of supernatants onto SDS -PAGE gels. Input lysates (~30 µg) were prepared in parallel as Western blot controls.
14. Cellular thermal shift assay.
Progeroid mouse fibroblasts (LmnaG609G/G609G) were seeded (2x10^6 cells) in 100 mm dishes 24 h before the experiment. Next day, cells were first washed with PBS and then incubated with the proteasome inhibitor (S)-MG132 (20 µM) for 2 h at 37 °C and 5%
CO2. Then, the cells were incubated with compound 2 at the corresponding concentration or with vehicle for 60 min at 37 °C and 5% CO2. Cells were then washed with PBS, detached by treatment with trypsin, and collected by centrifugation at 250g and 25 °C for 5 min, washed with PBS and resuspended in PBS in 0.2 mL microtubes. Then, homogenates or cells were transferred to PCR tubes and heat-shocked for 3 min at the appropriate temperature (37 to 61 °C) followed by rapid cooling to 25 °C using a SensoQuest LabCycler Thermocycler (Progen Scientific Ltd). Igepal CA-630 was then added to the samples (final concentration of 1 % v/v), and the samples were thoroughly mixed and denatured by three cycles of freezing/thawing (immersion in liquid nitrogen followed by fast thawing). […]

[1] = Parallel artificial membrane permeability assay (PAMPA); assay type: in vitro ADME; settings: read-out: P, permeability
Protocol: Pharmacokinetic properties, including solubility and membrane permeability, are critical in drug discovery but can pose challenges in PROTAC development […] The calculated logarithm of the partition coefficient between n‐octanol and water (clogP), determined using ACDLabs Percepta Software, indicated an acceptable lipophilicity for PROTAC 2 (clogP = 3.94), aligning with Lipinski's “rule of 5” (clogP<5). […] Compound permeability was assessed using the parallel artificial membrane permeability assay (PAMPA), which measures the ability of compounds to diffuse through a lipid‐infused artificial membrane. […] The cellular uptake of compound 2 was further confirmed by fluorescence microscopy, leveraging the intrinsic fluorescence of pomalidomide‐bearing derivatives (Figure S4).

Structure (SMILES): CC1(C)Oc2cc3oc(=O)ccc3cc2C[C@@H]1OC(=O)CCCCCNc1cccc2c1C(=O)N(C1CCC(=O)NC1=O)C2=O (some centres unmarked) [compound 2]
- IC50 (progerin; CETSA, isothermal at 53 °C, Lmna^G609G/G609G fibroblasts, read-out: binding affinity by isothermal dose‐response fingerprint (IC50)): 7 ± 1 µM
- direct binding to progerin by cellular thermal shift assays (progerin; Lmna^G609G/G609G fibroblasts): direct binding between compound 2 and progerin
- ΔTm at 10 µM (progerin; compound at 10 µM, read-out: DTm of progerin (thermal denaturation curve)): 0.7 ± 0.1 °C
- ΔTm at 25 µM (progerin; compound at 25 µM, read-out: DTm of progerin (thermal denaturation curve)): 2 ± 0.3 °C
- Papp [1]: 6.7 ×10⁻⁶ cm/s
